Data from US20060211765A1, “Novel compounds” (ASTRAZENECA AB, priority 2003, published 2006).

Biological target: T1, rhCRTh2 (Homo sapiens, UniProt Q9Y5Y4)
T1 construct: expressed in transfected cells; host or cells: HEK cells (membrane preparation)
T1 sequence (Q9Y5Y4 1-395): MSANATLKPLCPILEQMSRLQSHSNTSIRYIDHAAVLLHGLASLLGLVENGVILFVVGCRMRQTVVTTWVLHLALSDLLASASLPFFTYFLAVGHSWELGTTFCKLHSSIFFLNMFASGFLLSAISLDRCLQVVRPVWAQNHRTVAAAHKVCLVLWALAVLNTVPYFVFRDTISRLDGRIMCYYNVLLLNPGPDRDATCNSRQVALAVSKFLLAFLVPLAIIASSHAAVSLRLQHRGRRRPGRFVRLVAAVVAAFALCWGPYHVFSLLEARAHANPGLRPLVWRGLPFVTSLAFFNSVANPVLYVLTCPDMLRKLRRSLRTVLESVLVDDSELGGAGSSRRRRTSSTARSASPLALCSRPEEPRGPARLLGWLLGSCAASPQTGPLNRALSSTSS
Experiment: Ligand Binding Assay ([3H]PGD2 SPA on HEK cell membranes)
Conditions: [3H]PGD2 displacement, HEK cell membranes expressing rhCRTh2/Gα16, SPA beads
Procedure: [^3H]PGD2 was purchased from Perkin Elmer Life Sciences with a specific activity of 100-210 Ci/mmol. All other chemicals were of analytical grade.
HEK cells expressing rhCRTh2/Gα16 were routinely maintained in DMEM containing 10% Foetal Bovine Serum (HyClone), 1 mg/ml geneticin, 2 mM L-glutamine and 1% non-essential amino acids. For the preparation of membranes, the adherent transfected HEKcells were grown to confluence in two layer tissue culture factories (Fisher, catalogue number TKT-170-070E). Maximal levels of receptor expression were induced by addition of […] sodium butyrate for the last 18 hours of culture. […] The final pellet was re-suspended in 4 ml of membrane homogenisation buffer per cell factory used and the protein content determined. […]
All assays were performed in Corning clear bottomed, white 96-well NBS plates (Fisher). […] (The optimum coating concentrations were determined for each batch of membranes) The beads were pelleted by centrifugation (800×g for 7 minutes at 4° C.), washed once with assay buffer (50 mM HEPES pH 7.4 containing 5 mM magnesium chloride) and finally re-suspended in assay buffer at a bead concentration of 10 mg/ml. […]

| IC50 [nM] | Compound |
| --- | --- |
| 251 | CCS(=O)(=O)c1ccc(-c2cc(OC)ccc2OCC(=O)O)cc1 [Example 3, {[4′-(Ethylsulfonyl)-5-methoxybiphenyl-2-yl]oxy}acetic acid] |
| 79.4 | CCc1ccc(OCC(=O)O)c(-c2ccc(S(C)(=O)=O)cc2)c1 [Example 2, {[5-Ethyl-4′-(methylsulfonyl)biphenyl-2-yl]oxy}acetic acid] |
